Results taken from patent US7871998B2, “Diphenylazetidinone derivatives possessing cholesterol absorption inhibitory activity” (AstraZeneca AB, priority 2003, dated 2011).
Each block holds one compound with its values, some of them ahead of it.

Experiments:
[1] = Absorption in a Caco-2 cells model; assay type: in vitro ADME; conditions: human
Protocol: (§1) Absorption of the compounds of formula (I) was tested in a Caco-2 cells model (Gastroenterology 1989, 96, 736): […]

Caco-2 cells = assay: Absorption in a Caco-2 cells model; assay type: in vitro ADME
Protocol: as §1

[2] = test system: ^14C-cholesterol absorption; assay: In vivo testing of cholesterol absorption inhibitors (A); set-up: species or system C57BL/6 female mice; conditions: procedure A, gavage, mice
Protocol: In vivo Testing of Cholesterol Absorption Inhibitors (A)
C57BL/6 female mice were maintained on regular chow diet and housed in individual cages to collect faeces. Mice were fasted for 3 hours and then gavaged with vehicle or compound. Half an hour later the mice were gavaged with radiolabelled cholesterol. Six hours after the ^14C-cholesterol gavage blood samples were taken via the tail and plasma prepared to determine how much cholesterol were absorbed. 24 hours after the gavage of ^14C-cholesterol the mice were bled and plasma were prepared for analysis. Faeces were collected for 24 hours to assess absorption efficiency.

- Papp [1]: 0.06 ×10⁻⁶ cm/s
Structure (SMILES): CC(C)[C@@H](NC(=O)CNC(=O)COc1ccc([C@@H]2[C@@H](SCC(O)c3ccc(F)cc3)C(=O)N2c2ccc(F)cc2)cc1)C(=O)O (stereo partly drawn) [Example 23, N-{[4-((2R,3R)-1-(4-fluorophenyl)-3-{[2-(4-fluorophenyl)-2-hydroxyethyl]thio}-4-oxoazetidin-2-yl)phenoxy]acetyl}glycyl-D-valine]

- Papp [1]: 0.07 ×10⁻⁶ cm/s
Structure (SMILES): O=C(COc1ccc([C@@H]2[C@@H](SCC(O)c3ccc(F)cc3)C(=O)N2c2ccc(F)cc2)cc1)NCC(=O)N[C@H](Cc1ccc(O)cc1)C(=O)O (stereo partly drawn) [Example 26, N-{[4-((2R,3R)-1-(4-fluorophenyl)-3-{[2-(4-fluorophenyl)-2-hydroxyethyl]thio}-4-oxoazetidin-2-yl)phenoxy]acetyl}glycyl-D-tyrosine]

- Caco value (Caco-2 cells): 0.2 ×10⁻⁶ cm/s
Structure (SMILES): NCCCC[C@@H](NC(=O)CNC(=O)COc1ccc([C@@H]2[C@@H](SCC(O)c3ccc(F)cc3)C(=O)N2c2ccc(F)cc2)cc1)C(=O)O (some centres unmarked) [Example 29]

Structure (SMILES): O=C(COc1ccc([C@@H]2[C@@H](SCC(O)c3ccc(F)cc3)C(=O)N2c2ccc(F)cc2)cc1)NCC(=O)N[C@H](CC1CCCC1)C(=O)O (stereo partly drawn) [Example 85, N-{[4-((2R,3R)-1-(4-fluorophenyl)-3-{[2-(4-fluorophenyl)-2-hydroxyethyl]thio}-4-oxoazetidin-2-yl)phenoxy]acetyl}glycyl-3-cyclopentyl-D-alanine]
- inhibition of ^14C-cholesterol absorption ([2]; 0.2 μmol/kg): 47%

Structure (SMILES): NCCC[C@@H](NC(=O)CNC(=O)COc1ccc([C@@H]2[C@@H](SCC(O)c3ccc(F)cc3)C(=O)N2c2ccc(F)cc2)cc1)C(=O)O (stereo partly drawn) [Example 91, N-{[4-((2R,3R)-1-(4-fluorophenyl)-3-{[2-(4-fluorophenyl)-2-hydroxyethyl]thio}-4-oxoazetidin-2-yl)phenoxy]acetyl}glycyl-D-ornithine]
- inhibition of ^14C-cholesterol absorption ([2]; 0.2 μmol/kg): 58%

Structure (SMILES): O=C(COc1ccc([C@@H]2[C@@H](SCC(O)c3ccc(F)cc3)C(=O)N2c2ccc(F)cc2)cc1)N[C@@H](C(=O)N[C@@H](CO)C(=O)O)c1ccccc1 (stereo partly drawn) [Example 94, 1-(4-Fluorophenyl)-3-(R)-[2-(4-fluorophenyl)-2-hydroxyethylthio]-4-(R)-{4-[N-(α-(R)-{N-[2-(hydroxy)-1-(S)-(carboxy)ethyl]carbamoyl}benzyl)carbamoylmethoxy]phenyl}azetidin-2-one]
- inhibition of ^14C-cholesterol absorption ([2]; 5 μmol/kg): 89%

Structure (SMILES): O=C(COc1ccc([C@@H]2[C@@H](SCC(O)c3ccc(F)cc3)C(=O)N2c2ccc(F)cc2)cc1)NCC(=O)N[C@H](CO)C(=O)O (stereo partly drawn) [Example 96, 1-(4-Fluorophenyl)-3-(R)-[2-(4-fluorophenyl)-2-hydroxyethylthio]-4-(R)-{4-[N-{N-[2-(hydroxy)-1-(R)-(carboxy)ethyl]carbamoylmethyl}carbamoylmethoxy]phenyl}azetidin-2-one]
- inhibition of ^14C-cholesterol absorption ([2]; 5 μmol/kg): 87%

- Caco value (Caco-2 cells): 0.09 ×10⁻⁶ cm/s
Structure (SMILES): O=C(COc1ccc([C@@H]2[C@@H](SCC(O)c3ccc(F)cc3)C(=O)N2c2ccc(F)cc2)cc1)NCC(=O)N[C@H](Cc1ccccc1)C(=O)O (stereo partly drawn) [Example 97, 1-(4-Fluorophenyl)-3-(R)-[2-(4-fluorophenyl)-2-hydroxyethylthio]-4-(R)-{4-[N-{N-[2-(phenyl)-1-(R)-(carboxy)ethyl]carbamoylmethyl}carbamoylmethoxy]phenyl}azetidin-2-one]
